# Experimental data as given in patent publication US8829007B2 (priority 2009, dated 2014).
# Test system: influenza A virus (A/PR/8/34)
# Assay: microbe, parasite or virus in culture
# Format: cell-based
# Details: Influenza A virus, PR/8, MDCK, MDCK cells infected with A/PR/8/34, cell protection (CPE); read-out: IC50 (mean all)
row,SMILES,IC50 [µM]
1,"C[C@@H](CO)CN1CCC[C@@H](CNc2nc(-c3c[nH]c4ncc(Cl)cc34)ncc2F)C1 [Compound 141, (R)-3-((S)-3-((2-(5-chloro-1H-pyrrolo[2,3-b]pyridin-3-yl)-5-fluoropyrimidin-4-ylamino)methyl)piperidin-1-yl)-2-methylpropan-1-ol]",> 20
2,"O=C(c1ccccc1Oc1ccccc1)N1CCC[C@H](CNc2nc(-c3c[nH]c4ncc(Cl)cc34)ncc2F)C1 [Compound 150, (R)-(3-((2-(5-chloro-1H-pyrrolo[2,3-b]pyridin-3-yl)-5-fluoropyrimidin-4-ylamino)methyl)piperidin-1-yl)(2-phenoxyphenyl)methanone]",5 to 20
3,"CCOc1ccccc1C(=O)N1CCC[C@H](CNc2nc(-c3c[nH]c4ncc(Cl)cc34)ncc2F)C1 [Compound 158, (R)-(3-((2-(5-chloro-1H-pyrrolo[2,3-b]pyridin-3-yl)-5-fluoropyrimidin-4-ylamino)methyl)piperidin-1-yl)(2-ethoxyphenyl)methanone]",< 5
4,"O=C(c1nccs1)N1CCCC[C@H]1CNc1nc(-c2c[nH]c3ncc(Cl)cc23)ncc1F [Compound 165, (S)-(2-((2-(5-chloro-1H-pyrrolo[2,3-b]pyridin-3-yl)-5-fluoropyrimidin-4-ylamino)methyl)piperidin-1-yl)(thiazol-2-yl)methanone]",> 20
5,"COc1cccc(C(=O)N2CCCC[C@H]2CNc2nc(-c3c[nH]c4ncc(Cl)cc34)ncc2F)c1 [Compound 174, (S)-(2-((2-(5-chloro-1H-pyrrolo[2,3-b]pyridin-3-yl)-5-fluoropyrimidin-4-ylamino)methyl)piperidin-1-yl)(3-methoxyphenyl)methanone]",> 20
6,"COc1cccc(C(=O)N2CCCC[C@@H]2CNc2nc(-c3c[nH]c4ncc(Cl)cc34)ncc2F)c1 [Compound 184, (R)-(2-((2-(5-chloro-1H-pyrrolo[2,3-b]pyridin-3-yl)-5-fluoropyrimidin-4-ylamino)methyl)piperidin-1-yl)(3-methoxyphenyl)methanone]",> 20
7,"COc1ccccc1C(=O)N1CCCC[C@@H]1CNc1nc(-c2c[nH]c3ncc(Cl)cc23)ncc1F [Compound 190, (R)-(2-((2-(5-chloro-1H-pyrrolo[2,3-b]pyridin-3-yl)-5-fluoropyrimidin-4-ylamino)methyl)piperidin-1-yl)(2-methoxyphenyl)methanone]",5 to 20
8,"CCCC(=O)N1CCC[C@@H](CNc2nc(-c3c[nH]c4ncccc34)ncc2F)C1 [Compound 225, (S)-1-(3-((5-fluoro-2-(1H-pyrrolo[2,3-b]pyridin-3-yl)pyrimidin-4-ylamino)methyl)piperidin-1-yl)butan-1-one]",5 to 20
9,"CN(C)C(=O)N1CCC[C@@H](CNc2nc(-c3c[nH]c4ncccc34)ncc2F)C1 [Compound 228, (S)-3-((5-fluoro-2-(1H-pyrrolo[2,3-b]pyridin-3-yl)pyrimidin-4-ylamino)methyl)-N,N-dimethylpiperidine-1-carboxamide]",5 to 20
10,"CC(=O)N1CCCC[C@H]1CNc1nc(-c2c[nH]c3ncccc23)ncc1F [Compound 256, (S)-1-(2-((5-fluoro-2-(1H-pyrrolo[2,3-b]pyridin-3-yl)pyrimidin-4-ylamino)methyl)piperidin-1-yl)ethanone]",5 to 20
11,"CCC(=O)N1CCCC[C@H]1CNc1nc(-c2c[nH]c3ncccc23)ncc1F [Compound 257, (S)-1-(2-((5-fluoro-2-(1H-pyrrolo[2,3-b]pyridin-3-yl)pyrimidin-4-ylamino)methyl)piperidin-1-yl)propan-1-one]",5 to 20
12,"CCCC(=O)N1CCCC[C@H]1CNc1nc(-c2c[nH]c3ncccc23)ncc1F [Compound 258, (S)-1-(2-((5-fluoro-2-(1H-pyrrolo[2,3-b]pyridin-3-yl)pyrimidin-4-ylamino)methyl)piperidin-1-yl)butan-1-one]",5 to 20

# Same assay, conditions: MDCK cells infected with A/PR/8/34, cell protection (CPE); read-out: IC50 (mean all)
row,SMILES,IC50 [µM]
1,"NC1CCCCC1Nc1nc(-c2c[nH]c3ncccc23)ncc1F (stereo not drawn) [Compound 206, N-[5-fluoro-2-(1H-pyrrolo[5,4-b]pyridin-3-yl)pyrimidin-4-yl]cyclohexane-cis-1,2-diamine]",< 5
